Common to all, as to type: in vivo
The subject of assay [1] is diamondback moth (Plutella xylostella). As to the kind of experiment: Insecticidal effect on diamondback moth (Test Example 1). Particulars: for Insecticidal effect on diamondback moth (Test Example 1), judged grade: mortality judged according to the criterion shown in Test Example 1; for Insecticidal effect, Test Example 1 / Insecticidal effect (Test Example 1), judged from mortality: diamondback moth; for Insecticidal effect (Test Example 1), judged from mortality: judged by the criterion of Test Example 1. Summed up:
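Chinese cabbage seedlings carrying eggs laid by released adult moths were immersed in treatment, air-dried and held at 25° C. Hatched insects were counted six days after immersion, and mortality was calculated and scored against a fixed criterion. Three replicate groups of 10 insects were used.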

Assay [2] relates to common cutworm (Spodoptera Litura). Nature of the assay: Insecticidal effect on common cutworm (Test Example 2). The settings on record: 500 ppm, 25° C.; for Insecticidal effect on common cutworm (Test Example 2), judged grade / Insecticidal effect (Test Example 2), judged from mortality: cabbage leaf dip; for Insecticidal effect on common cutworm (Test Example 2), judged grade: second-instar larvae; for Insecticidal effect on common cutworm (Test Example 2), judged grade / Insecticidal effect, Test Example 2: eight days after inoculation; for Insecticidal effect, Test Example 2: cabbage leaf immersed; for Insecticidal effect (Test Example 2), judged from mortality: 8 days after inoculation. Summed up:
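Insecticidal effect was rated from percent mortality of second-instar larvae exposed to air-dried treatment at 25° C for 8 days.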

Assay [3] has as its system rice leafroller (Cnaphalocrocis medinalis). Nature of the assay: Insecticidal effect on rice leafroller (Test Example 3). The settings on record: 500 ppm, 25° C., humidity 70%; for Insecticidal effect on rice leafroller (Test Example 3), judged grade / Insecticidal effect (Test Example 3), judged from mortality: rice lamina dip; for Insecticidal effect on rice leafroller (Test Example 3), judged grade: third-instar larvae; for Insecticidal effect on rice leafroller (Test Example 3), judged grade / Insecticidal effect, Test Example 3: four days after inoculation; for Insecticidal effect, Test Example 3: rice lamina immersed; for Insecticidal effect (Test Example 3), judged from mortality: 4 days after inoculation. Summed up:
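Groups of 10 third-instar larvae, in triplicate, are placed on air-dried lamina resting on wet filter paper. Incubation runs four days at 25° C with 70% humidity before survivors and dead are tallied.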

[4] abbreviates: mortality judged by criterion of Test Example 1.
The mark [5] stands for this setting: common cutworm second-instar larvae.
Where [6] appears, read: rice leafroller third-instar larvae.
Where [7] appears, read: second-instar larvae of common cutworm.
The mark [8] stands for this setting: third-instar larvae of rice leafroller.
Setting [9] is: judged by the mortality criterion of Test Example 1.

In the case of `Cc1cc(OC(F)F)ccc1NC(=O)c1cccc([N+](=O)[O-])c1C(=O)NC(C)C` [compound 696, N^1-(4-difluoromethoxy-2-methylphenyl)-N^2-isopropyl-3-nitrophthalic acid diamide], the “Insecticidal effect on diamondback moth (Test Example 1), judged grade” value in assay [1] was “A (100)”. For the same molecule, in assay [2], the “Insecticidal effect on common cutworm (Test Example 2), judged grade” value is “A (100)”. The “Insecticidal effect on rice leafroller (Test Example 3), judged grade” value in assay [3] is “A (100)”.
For `CCCCCCNC(=O)c1c(I)cccc1C(=O)Nc1ccc(C(F)(F)C(F)(F)F)cc1C` [compound 949], the “Insecticidal effect, Test Example 1” value in assay [1] (setting [4]) is reported as “A (100)”. For the same molecule, in assay [2] (setting [5]), the “Insecticidal effect, Test Example 2” value is “A (100)”. In addition, the “Insecticidal effect, Test Example 3” value in assay [3] (setting [6]) is “A (100)”.
On to `Cc1cc(C(F)(F)C(F)(F)F)ccc1NC(=O)c1cccc(Cl)c1C(=O)NC(C)(C)C#Cc1ccc(C(F)(F)F)cc1` [compound 1585], for which, in assay [1], the “Insecticidal effect (Test Example 1), judged from mortality” value is “A (100)”. In addition, in assay [2] (setting [7]), the “Insecticidal effect (Test Example 2), judged from mortality” value is “A (100)”. Also, the “Insecticidal effect (Test Example 3), judged from mortality” value in assay [3] (setting [8]) is listed as “A (100)”.
As to `CC(C)NC(=O)c1c(I)cccc1C(=O)Nc1ccc2c(c1Cl)OC(F)(F)C(F)O2` (racemic) [compound 1679], in assay [1], the “Insecticidal effect (Test Example 1), judged from mortality” value is on record as “A (100)”. Besides, in assay [2] (setting [7]), the “Insecticidal effect (Test Example 2), judged from mortality” value was “A (100)”. Moreover, the “Insecticidal effect (Test Example 3), judged from mortality” value in assay [3] (setting [8]) was “A (100)”.
In the case of `Cc1cc(C(F)(F)F)ccc1NC(=O)c1c(Cl)cccc1C(=O)NC(C)C` [compound 221], the “Insecticidal effect, Test Example 1” value in assay [1] (setting [9]) is “A (100)”. For the same molecule, the “Insecticidal effect, Test Example 2” value in assay [2] (setting [7]) was “A (100)”. Moreover, the “Insecticidal effect, Test Example 3” value in assay [3] (setting [8]) is reported as “A (100)”.
Turning to `Cc1cc(C(F)(F)C(F)(F)F)ccc1NC(=O)c1cccc(I)c1C(=O)NC(C)c1ccccn1` (stereo not drawn) [compound 1777], the “Insecticidal effect (Test Example 1), judged from mortality” value in assay [1] is given as “A (100)”. In addition, the “Insecticidal effect (Test Example 2), judged from mortality” value in assay [2] (setting [7]) is recorded as “A (100)”. Further, the “Insecticidal effect (Test Example 3), judged from mortality” value in assay [3] (setting [8]) is “A (100)”.
For `CCc1cc(C(F)(F)C(F)(F)F)ccc1NC(=O)c1cccc(Cl)c1C(=O)NC(C)(C)C` [compound 1497], the “Insecticidal effect (Test Example 1), judged from mortality” value in assay [1] was “A (100)”. The “Insecticidal effect (Test Example 2), judged from mortality” value in assay [2] (setting [7]) is given as “A (100)”. In addition, in assay [3] (setting [8]), the “Insecticidal effect (Test Example 3), judged from mortality” value was “A (100)”.
Regarding `Cc1cc(C(F)(F)C(F)(F)F)ccc1NC(=O)c1ccc(F)c(Cl)c1C(=O)NC(C)C` [compound 1228], the “Insecticidal effect, Test Example 1” value in assay [1] (setting [4]) is “A (100)”. Further, the “Insecticidal effect, Test Example 2” value in assay [2] (setting [5]) is reported as “A (100)”. The “Insecticidal effect, Test Example 3” value in assay [3] (setting [6]) was “A (100)”.
As to `Cc1cc(C(F)(F)C(F)(F)F)ccc1NC(=O)c1cccc(I)c1C(=O)NC(C)(C)CO` [compound 1464], the “Insecticidal effect (Test Example 1), judged from mortality” value in assay [1] is reported as “A (100)”. Besides, the “Insecticidal effect (Test Example 2), judged from mortality” value in assay [2] (setting [7]) is given as “A (100)”. Further, the “Insecticidal effect (Test Example 3), judged from mortality” value in assay [3] (setting [8]) is reported as “A (100)”.
`Cc1cc(OC(F)(F)C(F)F)ccc1NC(=O)c1cccc(Cl)c1C(=O)NC(C)C` [Compound No. 141, 3-chloro-N^1-[4-(1,1,2,2-tetrafluoroethoxy)-2-methylphenyl]-N^2-isopropylphthalic acid diamide]: the “Insecticidal effect, Test Example 1” value in assay [1] (setting [9]) was “A (100)”. In addition, the “Insecticidal effect, Test Example 2” value in assay [2] (setting [7]) is “A (100)”. The “Insecticidal effect, Test Example 3” value in assay [3] (setting [8]) is “A (100)”.
With `Cc1cc(I)ccc1NC(=O)c1cccc([N+](=O)[O-])c1C(=O)NC(C)C` [compound 673], the “Insecticidal effect on diamondback moth (Test Example 1), judged grade” value in assay [1] is listed as “A (100)”. For the same molecule, in assay [2], the “Insecticidal effect on common cutworm (Test Example 2), judged grade” value is “D (79-50)”. Moreover, in assay [3], the “Insecticidal effect on rice leafroller (Test Example 3), judged grade” value is “D (79-50)”.
Turning to `Cc1cc(OC(F)F)ccc1NC(=O)c1c(Cl)cccc1C(=O)NC(C)C` [compound 236], the “Insecticidal effect, Test Example 1” value in assay [1] (setting [9]) is “A (100)”. The “Insecticidal effect, Test Example 2” value in assay [2] (setting [7]) is “A (100)”. The “Insecticidal effect, Test Example 3” value in assay [3] (setting [8]) is listed as “A (100)”.

Source of the values: patent US6362369B1, “Phthalic acid diamide derivatives fluorine-containing aniline compounds as starting material, agricultural and horticultural insecticides, and a method for application of the insecticides” (Nihon Nohyaku Co., Ltd., priority 1997, dated 2002).
